Test results taken from patent US20260015350A1, “AZAQUINAZOLINE PAN-KRAS INHIBITORS” (Mirati Therapeutics, Inc., priority 2022, published 2026).

Tests used:
[1] = target: T1, KRas^WT (Homo sapiens, UniProt P01116); test: KRas binding assay (TR-FRET tracer displacement), KRas WT; conditions: TR-FRET tracer displacement, KRas WT
T1 construct: Biotinylated KRas (corresponding to amino acids 1-169, produced at Accelegan Inc.); biotin (biotinylated); purchased Accelegan Inc

[2] = target: T2, KRas^G12A (Homo sapiens, UniProt P01116, G12A); test: KRas binding assay (TR-FRET tracer displacement), KRas G12A; conditions: TR-FRET tracer displacement, KRas G12A
T2 construct: Biotinylated KRas (corresponding to amino acids 1-169, produced at Accelegan Inc.); biotin (biotinylated); purchased Accelegan Inc

[3] = target: T3, KRas^G12C (Homo sapiens, UniProt P01116, G12C); test: KRas binding assay (TR-FRET tracer displacement), KRas G12C; conditions: TR-FRET tracer displacement, KRas G12C
T3 construct: Biotinylated KRas (corresponding to amino acids 1-169, produced at Accelegan Inc.); biotin (biotinylated); purchased Accelegan Inc

[4] = target: T4, KRas^G12D (Homo sapiens, UniProt P01116, G12D); test: KRas binding assay (TR-FRET tracer displacement), KRas G12D
T4 construct: Biotinylated KRas (corresponding to amino acids 1-169, produced at Accelegan Inc.); biotin (biotinylated); purchased Accelegan Inc

[5] = target: T5, KRas^G12R (Homo sapiens, UniProt P01116, G12R); test: KRas binding assay (TR-FRET tracer displacement), KRas G12R
T5 construct: Biotinylated KRas (corresponding to amino acids 1-169, produced at Accelegan Inc.); biotin (biotinylated); purchased Accelegan Inc

[6] = target: T6, KRas^G12S (Homo sapiens, UniProt P01116, G12S); test: KRas binding assay (TR-FRET tracer displacement), KRas G12S; conditions: TR-FRET tracer displacement, KRas G12S
T6 construct: Biotinylated KRas (corresponding to amino acids 1-169, produced at Accelegan Inc.); biotin (biotinylated); purchased Accelegan Inc

[7] = target: T7, KRas^G12V (Homo sapiens, UniProt P01116, G12V); test: KRas binding assay (TR-FRET tracer displacement), KRas G12V
T7 construct: Biotinylated KRas (corresponding to amino acids 1-169, produced at Accelegan Inc.); biotin (biotinylated); purchased Accelegan Inc

[8] = target: T8, KRas^G13D (Homo sapiens, UniProt P01116, G13D); test: KRas binding assay (TR-FRET tracer displacement), KRas G13D; conditions: TR-FRET tracer displacement, KRas G13D
T8 construct: Biotinylated KRas (corresponding to amino acids 1-169, produced at Accelegan Inc.); biotin (biotinylated); purchased Accelegan Inc

[9] = target: T9, KRas^Q61H (Homo sapiens, UniProt P01116, Q61H); test: KRas binding assay (TR-FRET tracer displacement), KRas Q61H; conditions: TR-FRET tracer displacement, KRas Q61H
T9 construct: Biotinylated KRas (corresponding to amino acids 1-169, produced at Accelegan Inc.); biotin (biotinylated); purchased Accelegan Inc

[10] = system: KRas-mediated phosphorylation of ERK in MKN1 cells; test: Inhibition of KRas-mediated phosphorylation of ERK (Cisbio HTRF pERK), MKN1 cells; assay type: cell-based; conditions: Homo sapiens, MKN-1
Outline: (§1)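 HTRF pERK read-out; 6,000 cells/well, RPMI_10% FBS, overnight 37° C./5% CO2; 4 h covered incubation at RT before reading.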

[11] = system: KRas-mediated phosphorylation of ERK in PSN1 cells; test: Inhibition of KRas-mediated phosphorylation of ERK (Cisbio HTRF pERK), PSN1 cells; assay type: cell-based; conditions: Homo sapiens
Outline: as §1

[12] = system: KRas-mediated phosphorylation of ERK in AsPC-1 cells; test: Inhibition of KRas-mediated phosphorylation of ERK (Cisbio HTRF pERK), AsPC-1 cells; assay type: cell-based; conditions: Homo sapiens; for IC50: ASPC1, AsPC-1 cells, HTRF pERK
Outline: (§2)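 6,000 cells/well; cpd 10 uM top, 3-fold x10, 0.8% DMSO final; 3 hr incubation; Min ctrl Trametinib 0.2 uM; lysis 40 min 4° C shaking; d2 + Cryptate Ab mix, 2 hr RT; HTRF read.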

[13] = system: KRas-mediated phosphorylation of ERK in H727 cells; test: Inhibition of KRas-mediated phosphorylation of ERK (Cisbio HTRF pERK), H727 cells; assay type: cell-based; conditions: Homo sapiens; for IC50: NCI-H727, H727 cells, HTRF pERK
Outline: as §2

[14] = system: KRas-mediated phosphorylation of ERK in A549 cells; test: Inhibition of KRas-mediated phosphorylation of ERK (Cisbio HTRF pERK), A549 cells; assay type: cell-based; conditions: Homo sapiens; for IC50: HTRF pERK; for inhibition at 0.1 µM: A549, 3 h, single point, 100 nM compound, 3 hrs
Outline: (§3)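 Following a 3-hr exposure of cells to serially diluted compound (from 10 uM, 3-fold, 10 doses), cold lysis for 40 mins preceded a 2-hr room-temperature HTRF immunoassay for phosphorylated ERK.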

[15] = system: KRas-mediated phosphorylation of ERK in HCT116 cells; test: Inhibition of KRas-mediated phosphorylation of ERK (Cisbio HTRF pERK), HCT116 cells; assay type: cell-based; conditions: Homo sapiens; for IC50: HCT-116, HTRF pERK; for inhibition at 0.1 µM: HCT-116, 3 h, single point, 100 nM compound, 3 hrs
Outline: as §3

[16] = system: KRas-mediated phosphorylation of ERK in H460 cells; test: Inhibition of KRas-mediated phosphorylation of ERK (Cisbio HTRF pERK), H460 cells; assay type: cell-based; conditions: Homo sapiens; for inhibition at 0.1 µM: NCI-H460, 3 h, single point, 100 nM compound, 3 hrs
Outline: as §2

[17] = system: KRas-mediated phosphorylation of ERK in H358 cells; test: Inhibition of KRas-mediated phosphorylation of ERK (Cisbio HTRF pERK), H358 cells; assay type: cell-based; conditions: Homo sapiens; for inhibition at 0.1 µM: NCI-H358, 3 h, single point, 100 nM compound, 3 hrs
Outline: as §2

T5 sequence (P01116 1-169 isoform P01116-2 G12R): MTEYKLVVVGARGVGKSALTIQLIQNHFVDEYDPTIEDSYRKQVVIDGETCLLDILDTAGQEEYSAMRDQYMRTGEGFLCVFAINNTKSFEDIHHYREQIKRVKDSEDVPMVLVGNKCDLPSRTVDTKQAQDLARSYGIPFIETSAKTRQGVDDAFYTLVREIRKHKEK
T7 sequence (P01116 1-169 isoform P01116-2 G12V): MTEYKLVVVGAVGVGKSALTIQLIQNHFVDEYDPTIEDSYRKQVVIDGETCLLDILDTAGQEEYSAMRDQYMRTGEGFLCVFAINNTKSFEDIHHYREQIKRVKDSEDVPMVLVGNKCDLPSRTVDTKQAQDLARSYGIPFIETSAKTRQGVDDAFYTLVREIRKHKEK
T8 sequence (P01116 1-169 isoform P01116-2 G13D): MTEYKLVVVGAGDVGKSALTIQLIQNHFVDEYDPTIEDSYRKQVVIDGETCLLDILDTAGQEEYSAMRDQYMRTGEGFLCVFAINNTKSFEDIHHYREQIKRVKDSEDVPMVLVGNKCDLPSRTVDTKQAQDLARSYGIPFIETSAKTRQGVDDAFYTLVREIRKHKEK
T4 sequence (P01116 1-169 isoform P01116-2 G12D): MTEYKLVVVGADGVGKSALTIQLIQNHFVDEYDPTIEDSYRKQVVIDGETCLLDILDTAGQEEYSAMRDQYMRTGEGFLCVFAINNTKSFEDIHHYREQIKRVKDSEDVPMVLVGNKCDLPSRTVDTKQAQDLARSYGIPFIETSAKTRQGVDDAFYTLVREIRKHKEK
T6 sequence (P01116 1-169 isoform P01116-2 G12S): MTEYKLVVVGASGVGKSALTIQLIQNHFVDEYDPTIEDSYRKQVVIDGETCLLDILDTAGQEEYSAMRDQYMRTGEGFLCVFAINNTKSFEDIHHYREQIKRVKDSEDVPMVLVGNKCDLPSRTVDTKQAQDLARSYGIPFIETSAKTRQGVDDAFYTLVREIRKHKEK
T3 sequence (P01116 1-169 isoform P01116-2 G12C): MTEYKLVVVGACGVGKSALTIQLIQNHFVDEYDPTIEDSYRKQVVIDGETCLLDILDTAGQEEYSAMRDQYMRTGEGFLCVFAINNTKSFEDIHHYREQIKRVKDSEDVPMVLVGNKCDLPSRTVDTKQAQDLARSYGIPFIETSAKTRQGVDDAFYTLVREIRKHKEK
T1 sequence (P01116 1-169 isoform P01116-2): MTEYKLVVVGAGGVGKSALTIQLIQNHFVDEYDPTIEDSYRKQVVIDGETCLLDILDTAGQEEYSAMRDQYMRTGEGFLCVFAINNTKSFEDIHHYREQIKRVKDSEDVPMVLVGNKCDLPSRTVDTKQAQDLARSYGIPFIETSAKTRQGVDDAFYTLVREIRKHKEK
T9 sequence (P01116 1-169 isoform P01116-2 Q61H): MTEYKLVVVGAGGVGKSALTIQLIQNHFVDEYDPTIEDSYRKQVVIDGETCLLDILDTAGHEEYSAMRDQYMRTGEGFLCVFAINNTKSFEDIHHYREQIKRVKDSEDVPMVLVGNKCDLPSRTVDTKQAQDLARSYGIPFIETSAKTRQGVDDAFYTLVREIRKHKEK
T2 sequence (P01116 1-169 isoform P01116-2 G12A): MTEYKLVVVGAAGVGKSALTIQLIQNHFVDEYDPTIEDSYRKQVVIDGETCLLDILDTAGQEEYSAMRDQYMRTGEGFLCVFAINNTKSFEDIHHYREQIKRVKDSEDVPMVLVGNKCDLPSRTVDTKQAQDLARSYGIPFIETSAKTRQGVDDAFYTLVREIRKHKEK

| Structure (SMILES) | IC50 [1] | IC50 [2] | IC50 [3] | IC50 [4] | IC50 [5] | IC50 [6] | IC50 [7] | IC50 [8] | IC50 [9] | IC50 [10] | IC50 [11] | IC50 [12] | IC50 [13] | inhibition at 0.1 µM [14] | inhibition at 0.1 µM [16] | inhibition at 0.1 µM [15] | inhibition at 0.1 µM [17] | further results |
| --- | --- | --- | --- | --- | --- | --- | --- | --- | --- | --- | --- | --- | --- | --- | --- | --- | --- | --- |
| Cc1cc2[nH]ncc2c(-c2ncc3c(N4CCCC5(C4)NC(=O)NC5=O)nc(OCC45CCCN4CCC5)nc3c2F)c1C (centres unmarked) [Example 728, 7-(7-(5,6-dimethyl-1H-indazol-4-yl)-8-fluoro-2-((hexahydro-1H-pyrrolizin-7a-yl)methoxy)pyrido[4,3-d]pyrimidin-4-yl)-1,3,7-triazaspiro[4.5]decane-2,4-dione] | 34 nM | 35 nM | 31 nM | 60 nM | 34 nM | 31 nM | 23 nM | 37 nM | 40 nM | > 10000 nM | > 10000 nM | 2510 nM | 2510 nM |  |  |  |  |  |
| O=S1(=O)NCC2(CCCN(c3nc(OCC45CCCN4CCC5)nc4c(F)c(-c5c6ccccc6cc6[nH]ncc56)ncc34)C2)N1 (centres unmarked) [Example 758, 7-(7-(1H-benzo[f]indazol-4-yl)-8-fluoro-2-((hexahydro-1H-pyrrolizin-7a-yl)methoxy)pyrido[4,3-d]pyrimidin-4-yl)-2-thia-1,3,7-triazaspiro[4.5]decane 2,2-dioxide] | < 2 nM | < 2 nM | < 2 nM | 5 nM | < 2 nM | < 2 nM | < 2 nM | < 2 nM | < 2 nM |  |  | 1270 nM | 1780 nM | 11% | 9% | 20% | 23% |  |
| CN(C)C(=O)c1cc2n(n1)CCCN(c1nc(OC[C@@]34CCCN3C[C@H](F)C4)nc3c(F)c(-c4c5ccccc5cc5[nH]ncc45)ncc13)C2 [Example 761, 5-(7-(1H-benzo[f]indazol-4-yl)-8-fluoro-2-(((2R,7aS)-2-fluorohexahydro-1H-pyrrolizin-7a-yl)methoxy)pyrido[4,3-d]pyrimidin-4-yl)-N,N-dimethyl-5,6,7,8-tetrahydro-4H-pyrazolo[1,5-a][1,4]diazepine-2-carboxamide] | 106 nM | 65 nM | 41 nM | 8 nM | 74 nM | 33 nM | 23 nM | 177 nM | 151 nM | > 10000 nM | > 10000 nM | 4320 nM | 1280 nM |  | 11% | -13% |  |  |
| Oc1cc(-c2ncc3c(N4C[C@@H]5C[C@H](C4)[C@H](O)C5)nc(OC[C@@]45CCCN4C[C@H](F)C5)nc3c2F)c2ccc(Cl)cc2c1 [Example 763, (1R,5R,6R)-3-(7-(6-chloro-3-hydroxynaphthalen-1-yl)-8-fluoro-2-(((2R,7aS)-2-fluorohexahydro-1H-pyrrolizin-7a-yl)methoxy)pyrido[4,3-d]pyrimidin-4-yl)-3-azabicyclo[3.2.1]octan-6-ol] | 36 nM | 25 nM | 33 nM | 70 nM | 18 nM | 20 nM | 23 nM | 36 nM | 45 nM |  |  | 1250 nM | 498 nM | -11% | 13% | 5% | -25% |  |
| CCc1cccc2cc3[nH]ncc3c(-c3ncc4c(N5CCCC6(CNS(=O)(=O)N6)C5)nc(OC[C@@]56CCCN5C[C@H](F)C6)nc4c3F)c12 (stereo partly drawn) [Example 772, 7-(7-(5-ethyl-1H-benzo[f]indazol-4-yl)-8-fluoro-2-(((2R,7aS)-2-fluorohexahydro-1H-pyrrolizin-7a-yl)methoxy)pyrido[4,3-d]pyrimidin-4-yl)-2-thia-1,3,7-triazaspiro[4.5]decane 2,2-dioxide] | 4 nM | 5 nM | 7 nM | 7 nM | 12 nM | 5 nM | 5 nM | 4 nM | 3 nM |  |  | 2230 nM | 2670 nM | 22% | 19% | 3% | -4% |  |
| O=C1NC(=O)[C@]2(CCCN(c3nc(OC[C@@]45CCCN4C[C@H](F)C5)nc4c(F)c(-c5c(C6CC6)c(Cl)cc6[nH]ncc56)ncc34)C2)N1 [Example 780, (5R)-7-(7-(6-chloro-5-cyclopropyl-1H-indazol-4-yl)-8-fluoro-2-(((2R,7aS)-2-fluorohexahydro-1H-pyrrolizin-7a-yl)methoxy)pyrido[4,3-d]pyrimidin-4-yl)-1,3,7-triazaspiro[4.5]decane-2,4-dione] | < 2 nM | < 2 nM | < 2 nM | < 2 nM | < 2 nM | < 2 nM | < 2 nM | < 2 nM | < 2 nM |  |  | 784 nM | 340 nM | 21% | -8% | -2% | 42% | inhibition at 0.1 µM ([12]; ASPC1, 3 h, single point, 100 nM compound, 3 hrs, AsPC-1 cells): -12%; inhibition at 0.1 µM ([13]; NCI-H727, 3 h, single point, 100 nM compound, 3 hrs, H727 cells): 30%; IC50 [14]: 412 nM; IC50 ([16]; NCI-H460, HTRF pERK): 246 nM; IC50 [15]: 557 nM; IC50 ([17]; NCI-H358, HTRF pERK): 33 nM |

More lines, main results first:

| IC50 [1] | IC50 [2] | IC50 [3] | IC50 [4] | IC50 [5] | IC50 [6] | IC50 [7] | IC50 [8] | IC50 [9] | IC50 [10] | IC50 [11] | IC50 [12] | IC50 [13] | Structure (SMILES) | inhibition at 0.1 µM [14] | inhibition at 0.1 µM [16] | inhibition at 0.1 µM [15] | inhibition at 0.1 µM [17] | further results |
| --- | --- | --- | --- | --- | --- | --- | --- | --- | --- | --- | --- | --- | --- | --- | --- | --- | --- | --- |
| 3 nM | < 2 nM | < 2 nM | < 2 nM | < 2 nM | 2 nM | < 2 nM | 3 nM | < 2 nM | 624 nM | > 10000 nM | 1600 nM | 292 nM | Oc1cc(Cl)c(C2CC2)c(-c2ncc3c(N4CCC[C@]5(C4)C[C@H](O)C5)nc(OCC45CCCN4CCC5)nc3c2F)c1 [Example 742, (2s,4r)-6-(7-(3-chloro-2-cyclopropyl-5-hydroxyphenyl)-8-fluoro-2-((tetrahydro-1H-pyrrolizin-7a(5H)-yl)methoxy)pyrido[4,3-d]pyrimidin-4-yl)-6-azaspiro[3.5]nonan-2-ol] |  |  |  |  | IC50 [14]: 2610 nM; IC50 [15]: 1790 nM |
| 22 nM | 14 nM | 7 nM | 2 nM | 11 nM | 7 nM | 4 nM | 25 nM | 22 nM | > 10000 nM | > 10000 nM | > 10000 nM | > 10000 nM | CN(C)C(=O)c1cc2n(n1)CCCN(c1nc(OCC34CCCN3CCC4)nc3c(F)c(-c4c(C5CC5)c(Cl)cc5[nH]ncc45)ncc13)C2 [Example 881, 5-(7-(6-chloro-5-cyclopropyl-1H-indazol-4-yl)-8-fluoro-2-((tetrahydro-1H-pyrrolizin-7a(5H)-yl)methoxy)pyrido[4,3-d]pyrimidin-4-yl)-N,N-dimethyl-5,6,7,8-tetrahydro-4H-pyrazolo[1,5-a][1,4]diazepine-2-carboxamide] |  |  |  |  |  |
